Experimental data published in patent US10106515B2, “1-(cyclopent-2-en-1-yl)-3-(2-hydroxy-3-(arylsulfonyl)phenyl)urea derivatives as CXCR2 inhibitors” (GLAXOSMITHKLINE INTELLECTUAL PROPERTY DEVELOPMENT LIMITED, priority 2014, dated 2018).
Structures can show the parent of a compound that is named as a salt.

biological target: T1, recombinant human CXCR2 (Homo sapiens, UniProt P25025); test: CXCR2 Tango assay; format: cell-based; conditions: mean pIC50 of multiple test results; stimulated with 80 nM hCXCL1; reporter gene blue/green emission ratio; read-out: pIC50 (CXCR2 Tango assay) (converted)
T1 construct: TEV protease site; Gal4-VP16 transcription factor
T1 sequence (P25025 1-360): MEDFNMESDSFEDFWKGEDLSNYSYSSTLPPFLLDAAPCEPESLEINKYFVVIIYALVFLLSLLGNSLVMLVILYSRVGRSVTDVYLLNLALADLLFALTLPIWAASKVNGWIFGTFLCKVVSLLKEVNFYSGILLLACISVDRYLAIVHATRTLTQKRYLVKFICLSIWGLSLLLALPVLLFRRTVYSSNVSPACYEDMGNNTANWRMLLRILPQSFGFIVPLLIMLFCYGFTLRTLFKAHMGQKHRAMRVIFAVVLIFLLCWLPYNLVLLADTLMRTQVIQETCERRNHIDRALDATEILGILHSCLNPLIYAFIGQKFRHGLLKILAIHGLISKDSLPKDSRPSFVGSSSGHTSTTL
Method in brief: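 A stable cell line carries human CXCR2 fused to a TEV site and Gal4-VP16, with protease-tagged arrestin. Cells (~10,000/well) were stimulated overnight at 37 °C with 80 nM hCXCL1 and a 10-point compound dilution. CCF4-AM beta-lactamase FRET (460/530 nm ratio) was read, normalized to hCXCL1 and DMSO, and mean pIC50 reported.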

IC50	Structure (SMILES)
≤ 0.01 µM	CCN(CC)S(=O)(=O)c1c(Cl)ccc(NC(=O)NC2CCC=C2C)c1O (stereo not drawn) [Compound 121, 6-chloro-N,N-diethyl-2-hydroxy-3-(3-(2-methylcyclopent-2-en-1-yl)ureido)benzene-sulfonamide]
≤ 0.001 µM	CCO[C@H]1C[C@@H](S(=O)(=O)c2c(Cl)ccc(NC(=O)N[C@@H]3CCC=C3C)c2O)C1 [Compound 124, (R)-1-(4-chloro-3-((cis-3-ethoxycyclobutyl)sulfonyl)-2-hydroxyphenyl)-3-(2-methylcyclopent-2-en-1-yl)urea]
≤ 0.01 µM	CCO[C@H]1C[C@@H](S(=O)(=O)c2c(Cl)ccc(NC(=O)N[C@@H]3CCC=C3Cl)c2O)C1 [Compound 125, 1-(4-chloro-3-(((1s,3s)-3-ethoxycyclobutyl)sulfonyl)-2-hydroxyphenyl)-3-(2-chlorocyclopent-2-en-1-yl)urea]
≤ 0.001 µM	CC1=CCC[C@H]1NC(=O)Nc1ccc(Cl)c(S(=O)(=O)C2CC[C@@H](N(C)C)C2)c1O (stereo partly drawn) [Compound 127, cis-1-(4-chloro-3-((3-(dimethylamino)cyclopentyl)sulfonyl)-2-hydroxyphenyl)-3-((R)-2-methylcyclopent-2-en-1-yl)urea]
≤ 0.001 µM	CC1=CCCC1NC(=O)Nc1ccc(Cl)c(S(=O)(=O)[C@H]2CC[C@@H](N(C)C)CC2)c1O (stereo partly drawn) [Compound 129, 1-(4-chloro-3-(((1s,4s)-4-(dimethylamino)cyclohexyl)sulfonyl)-2-hydroxyphenyl)-3-(2-methylcyclopent-2-en-1-yl)urea, trifluoroacetic acid salt]
≤ 0.001 µM	CN(C)[C@H]1CC[C@@H](S(=O)(=O)c2c(Cl)ccc(NC(=O)NC3CCC=C3Cl)c2O)CC1 (stereo partly drawn) [Compound 130, 1-(4-chloro-3-((cis-4-(dimethylamino)cyclohexyl)sulfonyl)-2-hydroxyphenyl)-3-(2-chlorocyclopent-2-en-1-yl)urea, trifluoroacetic acid salt]
≤ 0.01 µM	CC1=CCCC1NC(=O)Nc1ccc(Cl)c(S(=O)(=O)[C@H]2C[C@H](CN(C)C)C2)c1O (stereo partly drawn) [Compound 131, 1-(4-chloro-3-(((1r,3r)-3-((dimethylamino)methyl)cyclobutyl)sulfonyl)-2-hydroxyphenyl)-3-(2-methylcyclopent-2-en-1-yl)urea, trifluoroacetic acid salt]
≤ 0.01 µM	CN(C)C[C@H]1C[C@@H](S(=O)(=O)c2c(Cl)ccc(NC(=O)NC3CCC=C3Cl)c2O)C1 (stereo partly drawn) [Compound 132, 1-(4-chloro-3-((cis-3-((dimethylamino)methyl)cyclobutyl)sulfonyl)-2-hydroxyphenyl)-3-(2-chlorocyclopent-2-en-1-yl)urea, trifluoroacetic acid salt]
≤ 0.01 µM	CC1=CCCC1NC(=O)Nc1ccc(Cl)c(S(=O)(=O)[C@H]2C[C@H](N(C)C)C2)c1O (stereo partly drawn) [Compound 133, 1-(4-chloro-3-((trans-3-(dimethylamino)cyclobutyl)sulfonyl)-2-hydroxyphenyl)-3-(2-methylcyclopent-2-en-1-yl)urea]
≤ 0.01 µM	CN(C)[C@H]1C[C@H](S(=O)(=O)c2c(Cl)ccc(NC(=O)NC3CCC=C3Cl)c2O)C1 (stereo partly drawn) [Compound 134, 1-(4-chloro-3-((trans-3-(dimethylamino)cyclobutyl)sulfonyl)-2-hydroxyphenyl)-3-(2-chlorocyclopent-2-en-1-yl)urea]
≤ 0.01 µM	CC1=CCCC1NC(=O)Nc1ccc(Cl)c(S(=O)(=O)N(C)C)c1O (stereo not drawn) [Compound 137, 6-chloro-2-hydroxy-N,N-dimethyl-3-(3-(2-methylcyclopent-2-en-1-yl)ureido)benzene-sulfonamide]
≤ 0.01 µM	O=C(O)C(F)(F)F.[2H]C([2H])([2H])N1CCC(C)(S(=O)(=O)c2c(Cl)ccc(NC(=O)N[C@@H]3CCC=C3C)c2O)CC1 [Compound 139, (R)-1-(4-chloro-2-hydroxy-3-((4-methyl-1-(d3-methyl)piperidin-4-yl)sulfonyl)phenyl)-3-(2-methylcyclopent-2-en-1-yl)urea, trifluoroacetic acid salt]
